Where a SMILES comes first, the peptide text is derived from it.
Experiments:
mice = experiment: Appetite suppression in mice, consumption of 20% sucrose solution; assay type: in vivo; conditions: intraperitoneal injection, 50 micrograms, in phosphate buffered saline
Description: Mice were deprived of their normal feed for two days and given free access to a 20% sucrose solution on the first day of feed deprivation. After the 2-day feed deprivation period, mice were injected intraperitoneally with 0.5ml of a solution containing the test substance. Thirty minutes after injection, individual mice were placed in one of eight 15 cm^2 test box with a stainless steel grid floor and a glass drinking tube which projected into the box. The drinking tube was connected to a reservoir containing a 20% sucrose solution, and the interior of the drinking tube contained an electrode enabling the detection of drinking contacts with the solution by measuring the flow of a weak (unnoticeable) electric current through mice by means of an electronic apparatus connected to the drinking tube electrode and the stainless steel grid floor. Consumption of the sucrose solution was measured over a 10 minute period by electronically recording the total amount of contact with the sucrose solution during the test session. The degree of appetite suppression produced by a given test substance was determined by statistical comparison of the duration of sucrose consumption by control (vehicle treated) mice with that of mice treated with a test substance. The degree of appetite suppression in a treated group of mice was expressed as percent of the control groups response. […]

fasted rats = conditions: cited from earlier work

Question: Which suppressed sucrose consumption (mice) does the source give for `CC[C@H](C)[C@H](NC(=O)[C@H](Cc1ccccc1)NC(=O)[C@H](CC(=O)O)NC(=O)[C@H](CCCNC(=N)N)NC(=O)[C@@H](NC(=O)[C@H](C)NC(=O)[C@H](CC(C)C)NC(=O)[C@H](CC(N)=O)NC(=O)[C@H](CC(=O)O)NC(=O)[C@H](CC(C)C)NC(=O)[C@@H](NC(=O)[C@@H](NC(=O)[C@H](CC(N)=O)NC(=O)[C@H](CCSC)NC(=O)[C@H](CCC(=O)O)NC(=O)[C@H](CC(=O)O)NC(=O)[C@H](CO)NC(=O)[C@H](Cc1ccccc1)NC(=O)[C@H](CO)NC(=O)CNC(=O)[C@H](CC(=O)O)NC(=O)[C@H](C)NC(=O)[C@@H](N)Cc1c[nH]cn1)[C@@H](C)O)C(C)C)[C@@H](C)O)C(=O)N[C@@H](CC(N)=O)C(=O)N[C@@H](Cc1c[nH]c2ccccc12)C(=O)N[C@@H](CC(C)C)C(=O)N[C@@H](CC(C)C)C(=O)N[C@@H](Cc1c[nH]cn1)C(=O)N[C@H](C(=O)N[C@@H](CCCCN)C(=O)N[C@H](C(=O)N[C@H](C(=O)N[C@@H](CC(=O)O)C(=O)O)[C@@H](C)O)[C@@H](C)CC)[C@@H](C)O` [synthetic porcine GLP-2, porcine GLP-2] (H-HADGSFSDEMNTVLDNLATRDFINWLLHTKITD-OH) here?
Answer: The suppressed sucrose consumption was 38%.

Question: With GLP-1 as the compound, how does the feeding (fasted rats; fasted rats, intracerebroventricular (ICV) administration) read?
Answer: The feeding was “inhibited feeding”.

Question: What about the “effect on feeding behaviour” value (fasted rats; peripheral administration) of the same compound?
Answer: Its value is “no effect on feeding behaviour”.

Question: For Glucagon, which “effect on food intake” value (fasted rats; fasted rats, intraperitoneal administration of pharmacological doses) is on record?
Answer: The value was “no effect on food intake”.
